# Measurements as given in patent publication US20250387410A1, “TREATMENT OF ANTI-VEGF REFRACTORY OPHTHALMIC RETINAL EYE CONDITIONS” (Eye Co Pty Ltd., priority 2022, published 2025).
# Several values for one entry are separate records, joined by “and”; a condition that tells them apart may be missing. Identical values can stand only once. Entries after “also recorded” stand apart in the source; their conditions may differ.
# Experiments:
# MIO-M1 cells = experiment: MTT assay, cell viability of MIO-M1 cells; format: cell-based, human
# Excerpt: (§1) The immortalised retinal cells used were as follows: MIO-M1 cells (Muller cell-derived; Müller 1 Moorefields, Institute of Ophthalmology, Dr A. Limb, Institute of Ophthalmology, University College, UK); ARPE19 (RPE-derived; ATCC CRL-2302, American Tissue Culture Collection, VA, USA); and 661W cells (photoreceptor-like derived; kindly gifted by Dr Muayyad R. Al-Ubaidi, Department of Cell Biology, University of Oklahoma Health Sciences Centre, Oklahoma City, OK, USA). Cells were authenticated and validated from Cell Bank Australia.
# (§2) The immortalised retinal cell lines MIO-M1, 661W and ARPE19 were used to undertake the MTT assay to assess cell metabolic activity, based on the cell's availability of NAPDH. Treatments included exposure to one of FA (10-0.01 μg/μl, provided by Professor Ben Boyd, Monash University, Australia), TA (10-0.01 μg/p, Honeywell, USA) and Dexamethasone (10-0.0001 μg/μl, Sigma-Aldrich, MO, USA). All corticosteroids used in vitro were dissolved in 20% dimethyl sulfoxide (DMSO) (Sigma-Aldrich, MO, USA) and ultrapure endotoxin 0.1M PBS (Thermo Fisher Scientific, MA, USA). At the 12-hour time point following addition of the corticosteroid, 10p of MTT reagent (Roche, Switzerland) was added to each well. To protect against light, plates were wrapped in foil and stored in the dark at 37° C. for 4 hours at 5.0% CO2. Cells were monitored using a bright field Zeiss Axiovert 200 inverted microscope (Carl Zeiss Meditec, Dublin, CA. USA) for formation of insoluble purple formazan precipitate crystals in viable cells. Subsequently 100p of MTT solubilisation solution was added and once again incubated in darkness at 37° C., 5.0% CO2 for 24 hours. Quantification of the MTT assay was performed by measuring the absorbance at 570 nm using Tecan Infinite® 200 PRO (Tecan, Mannedorf, Switzerland).
# [1] = test system: subjects with geographic atrophy (GA) secondary to AMD; experiment: Phase 1b single-dose dose-escalation intravitreal trial in geographic atrophy; format: in vivo, human
# Method: To evaluate the safety and tolerability of a single-dose intravitreal (IVT) injection of 1 mg/0.1 mL and 2 mg/0.1 mL Fludrocortisone acetate (FCA) in subjects with geographic atrophy (GA) secondary to Age-Related Macular Degeneration (AMD).
# Methods: This was a two-part dose-escalation prospective study. Part-1 involved a single participant treated with 1 mg/0.1 ml and monitored up to 28-days before being reviewed by a safety review committee. Two subsequent participants were then dosed with the same dose. Part-2 involved a single participant dosed with 2 mg/0.1 ml and monitored up to 28-days when a further 5 participants were dosed. All participants were followed up for 6-months after baseline.
# A full ophthalmic assessment was performed at study visits which included GA area, best-corrected visual acuity (BCVA), low-luminance BCVA and intra-ocular pressure (IOP). Adverse events (AE) were reported from the first dose of FCA until the end-of-study visit.
# This single-centre, phase 1b prospective, open-labeled, single-dose, dose-escalation clinical trial was conducted on 9 participants enrolled at a single site between August 2019 to April 2021. All patients were followed up for 6 months after baseline. Ethics approval was obtained before commencement and the trial was listed on the Australian and New Zealand Clinical Trial Registry (accessible via www.anzctr.org.au; ANZCTR no. 12618001308280). An independent data and safety committee provided oversight of the clinical trial. This study adhered to the tenets of the Declaration of Helsinki. Informed consent was obtained from all participants before enrolment into the study.
# Fludrocortisone acetate was formulated for intravitreal administration as a powder solution for injection to ensure long-term stability similar to other cortico-steroids (15). Vials contained 10 mg of FCA powder and were reconstituted with sterile sodium chloride solution (0.9%) according to the appropriate dosage prior to injection.
# Inclusion criteria referring the study eye were as follows: diagnosis of GA secondary to AMD confirmed using fundus autofluorescence (FAF) imaging, GA area between ≥1.9 and ≤17 mm2 (1 and 7 disc areas (DA) respectively), best corrected visual acuity (BCVA) of 24 letters or better using Early Treatment Diabetic Retinopathy Study (ETDRS) charts.
# A full ophthalmic assessment was performed at each study visit which included GA area assessed through FAF imaging, BCVA, lower-luminance BCVA (LL-BCVA) and intra-ocular pressure (IOP). Participants were assessed at screening, baseline, day 1, day 7, day 14, day 28, day 60, day 90 and day 150 (end of study). Blood and urine samples were collected for safety analysis at screening, baseline, day 7, day 28 and day 150.
# Part 1 of the study involved a single participant treated with 1 mg/0.1 ml FCA to assess safety and tolerability. This participant was followed-up for 28 days before the results were reviewed by an independent data safety monitoring committee (DSMB). Subsequent to approval by the DSMB, a further 2 participants were treated with 1 mg/0.1 ml FCA and followed-up for a further 28 days after treatment before commencement of part 2.
# Part 2 involved a single dose of 2 mg/0.1 ml of FCA in a single participant and followed-up for 28 days like part 1. The DSMB reviewed the results prior to enrolment of the remaining 5 participants.
# Fundus auto-fluorescence was captured using Heidelberg Spectralis (Heidelberg Engineering, Heidelberg, Germany). The assessment of GA size and progression was performed using FAF was performed by 2 graders (T.H and E.C.) in a blinded manner using Heidelberg region finder software version 2.6.2.0 (FIG. 1), a semi-automated program used to quantify atrophic areas. Baseline FAF images were defined and used to assess subsequent visits using the region finder software. In cases where there was a discrepancy of more than 20% between the two graders, a third grader (A.C.) evaluated the images. […]
# ARPE19 cells = experiment: MTT assay, cell viability of ARPE19 cells; format: cell-based, human
# Excerpt: as §1, §2
# [2] = 10-0.01 μg/μl, 12 h, compared to DMSO-only group
# [3] = fellow (uninjected) eye of treated participants, day 150
compound,measurement,setting,value
"CC(=O)OCC(=O)[C@@]1(O)CC[C@H]2[C@@H]3CCC4=CC(=O)CC[C@]4(C)[C@@]3(F)[C@@H](O)C[C@@]21C [FA, 9-α-Fluoro-11 β. 17 α, 21-trihydroxy-4-pregnene-3, 20 dione acetate]",viability of MIO-M1 cells at 1 μg/μl,MIO-M1 cells; 1 μg/μl,does not significantly alter cell viability
same,viability of MIO-M1 cells at the highest concentration,"MIO-M1 cells; 10 ug/uL, compared to DMSO-only group",slight reduction
same,viability of MIO-M1 cells (MTT assay),MIO-M1 cells; [2],do not induce toxicity; also recorded: no significant effect
same,loss of BCVA letters in the initial pilot participant,"[1]; 1 mg/ml, day 14, one participant, deemed most likely unrelated by the DSMB",22 letters
same,adverse event in one participant,"[1]; 2 mg/ml, after day 90, study eye, resolved after 1 week",nasal subconjunctival haemorrhage
same,other adverse events throughout the study,[1]; all 9 participants,No other adverse events
same,systemic adverse event,"[1]; dose escalation study, 9 participants",no systemic adverse event
same,"BCVA mean change from baseline, fellow eye",[1]; [3],4.88 ± 8.37 letters
same,"IOP mean change from baseline, fellow eye",[1]; [3],−0.625 ± 4.24 mmHg
same,"LLVA mean change from baseline, fellow eye",[1]; [3],4.5 ± 11.49 letters
same,"GA area mean change from baseline, fellow eye","[1]; fellow (uninjected) eye of treated participants, over 6 months, listed as FCA",0.62 mm^2 and 0.62 ± 4.49 mm^2
same,clinical safety and tolerability,"[1]; intravitreal, patients with GA secondary to AMD",clinically safe and well-tolerated
same,serious AEs (ocular or systemic),"[1]; single IVT 1 mg/0.1 ml or 2 mg/0.1 ml, 9 participants, 6 months",no serious AEs
same,cataract development / lens opacity,"[1]; single IVT 1 or 2 mg/0.1 ml, 6 months follow-up, no formal lens grading, listed as FCA",no participants required/underwent cataract surgery; also recorded: not observed; also recorded: no evidence
same,increase of IOP,"[1]; single IVT 1 or 2 mg/0.1 ml, study eye, 6 months follow-up, listed as FCA",No significant increases; also recorded: not observed; also recorded: did not increase; also recorded: no evidence
same,"IOP mean change from baseline, study eye","[1]; study eye, day 150 compared to baseline, listed as FCA",−0.25 mmHg and −0.25 ± 4.06 mmHg
same,"GA area mean change from baseline, study eye","[1]; study eye, over 6 months, FAF region finder, listed as FCA",0.5 mm^2 and 0.5 ± 5.69 mm^2
same,"changes in body temperature, heart rate, systolic or diastolic blood pressure",[1]; throughout the study,no significant changes
same,viability of ARPE19 cells at 1 μg/μl,ARPE19 cells; 1 μg/μl,does not significantly alter cell viability
same,viability of ARPE-19 cells (MTT assay),ARPE19 cells; [2],do not induce toxicity; also recorded: no significant effect
